The structures appear in SMILES notation. ≈ marks a conversion by molar mass, not a printed value. A value given as a limit tells only on which side of the number the result lay.

What all share (assay): ≥ marks a high value that may be exact or a test limit, other limits are often not marked, values filed in µg/mL are converted to µM
Assay [1] has as its system Aspergillus fumigatus.
The test system of assay [2] is Bacillus subtilis ATCC 6633.
Assay [3] has as its system Candida albicans.
The subject of assay [4] is Candida parapsilosis ATCC 22019.
Assay [5] has as its system Cryptococcus neoformans.
Assay [6] relates to Escherichia coli ATCC 10536.
Assay [7] relates to Klebsiella pneumoniae ATCC 27736.
Assay [8] concerns Pseudomonas aeruginosa ATCC BAA-427.
Assay [9] has as its system Sporothrix schenckii.
Assay [10] concerns Staphylococcus aureus ATCC 9144.
For assay [11], the system named is Staphylococcus aureus MR.
The subject of assay [12] is Staphylococcus epidermidis NRRL B-4268.
Assay [13] concerns Trichophyton mentagrophytes.
For assay [14], the system named is Escherichia coli ATCC 25922.
Assay [15] relates to Escherichia coli ATCC 35218.
In assay [16] the test system is Escherichia coli ESBL.
Assay [17] relates to Escherichia coli.
For assay [18], the system named is Pseudomonas aeruginosa ATCC 27853.
For assay [19], the system named is Pseudomonas aeruginosa.
Assay [20] concerns Staphylococcus aureus ATCC 29213.
Assay [21] relates to Staphylococcus aureus ATCC 43300.
The subject of assay [22] is Staphylococcus aureus.
For assay [23], the system named is Staphylococcus epidermidis.
Assay [24] concerns Staphylococcus haemolyticus.
The subject of assay [25] is Staphylococcus saprophyticus.
The test system of assay [26] is Streptococcus pyogenes ATCC 19615.
Assay [27] relates to Streptococcus pyogenes.
The subject of assay [28] is Streptococcus sp. Group C.
Assay [29] concerns Streptococcus sp. Group G.
The subject of assay [30] is Acinetobacter baumannii ATCC 19606.
For assay [31], the system named is Candida albicans ATCC 90028.
Assay [32] has as its system Enterococcus faecalis ATCC 29212.
The test system of assay [33] is Klebsiella pneumoniae ATCC 13883.
Assay [34] concerns Listeria ivanovii.
The test system of assay [35] is Saccharomyces cerevisiae.
Assay [36] deals with Staphylococcus aureus ATCC 25923.
The test system of assay [37] is Staphylococcus aureus ATCC BAA-44.
Assay [38] deals with Bacillus subtilis ATCC 19659.
The subject of assay [39] is Candida krusei ATCC 6258.
In assay [40] the test system is Cryptococcus neoformans ATCC 90012.
Assay [41] deals with Bacillus megaterium.
Assay [42] concerns Escherichia coli O157:H7.
Assay [43] concerns Lysinibacillus sphaericus TISTR 678.
In assay [44] the test system is Salmonella enterica subsp. enterica serovar Typhi ATCC 5784.
Assay [45] relates to Salmonella enterica subsp. enterica serovar Typhi.
Assay [46] relates to Vibrio cholerae.

Usually MIC stands for the smallest concentration in the dilution series that meets the test's criterion for growth inhibition. Read a high MIC as a need for much substance. With `CC(C)C[C@H](NC(=O)[C@H](CCCCN)NC(=O)[C@H](CC(C)C)NC(=O)[C@@H](NC(=O)[C@H](CCCN=C(N)N)NC(=O)[C@H](CCCN=C(N)N)NC(=O)[C@@H](NC(=O)[C@H](Cc1c[nH]c2ccccc12)NC(=O)[C@H](CCCCN)NC(=O)[C@H](CCCN=C(N)N)NC(=O)[C@@H](NC(=O)[C@H](CCCN=C(N)N)NC(=O)[C@H](CCCN=C(N)N)NC(=O)[C@@H](N)C(C)C)C(C)C)C(C)C)C(C)C)C(=O)N[C@H](C(N)=O)C(C)C` [VRRVRKWVRRVLKLV], the MIC in [1] worked out at 8.4 µM (≈ 16.5 µg/mL); in assay [2] it was 6.8 µM (≈ 13.3 µg/mL); in [3], 9.6 µM (≈ 18.8 µg/mL); in assay [4] it was 1.5 µM (≈ 2.94 µg/mL); in assay [5], 8.4 µM (≈ 16.5 µg/mL); in assay [6], 3 µM (≈ 5.89 µg/mL). Further, the MIC in [7] was determined as 3.2 µM (≈ 6.28 µg/mL); in assay [8], 3.2 µM (≈ 6.28 µg/mL); in [9], 6 µM (≈ 11.8 µg/mL); in assay [10], 5.1 µM (≈ 10 µg/mL); in assay [11], 12.5 µM (≈ 24.5 µg/mL); in [12] it was 6 µM (≈ 11.8 µg/mL). For the same compound, in [13], the MIC amounted to 6 µM (≈ 11.8 µg/mL).
On to `NC(=O)[C@H](Cc1c[nH]c2ccccc12)NC(=O)[C@H](Cc1c[nH]c2ccccc12)NC(=O)[C@H](Cc1c[nH]c2ccccc12)NC(=O)[C@H](Cc1c[nH]c2ccccc12)NC(=O)[C@@H]1CCCN1C(=O)[C@H](CCCN=C(N)N)NC(=O)[C@@H]1CCCN1C(=O)[C@H](CCCN=C(N)N)NC(=O)[C@@H]1CCCN1C(=O)[C@H](CCCN=C(N)N)NC(=O)[C@@H]1CCCN1C(=O)[C@H](CCCN=C(N)N)NC(=O)[C@@H](N)CCCN=C(N)N` [RRPRPRPRPWWWW], for which the MIC in assay [14] was 8.28 µM (≈ 16 µg/mL); in assay [15], 8.28 µM (≈ 16 µg/mL); in assay [16], 16.6 µM (≈ 32 µg/mL); in assay [17], 8.28 µM (≈ 16 µg/mL); in [18], 33.1 µM (≈ 64 µg/mL); in assay [19] it was 66.2 µM (≈ 128 µg/mL). Besides, the MIC in [20] is 8.28 µM (≈ 16 µg/mL); in assay [21] it was 8.28 µM (≈ 16 µg/mL); in assay [22], 11.7 µM (≈ 22.6 µg/mL); in assay [23], 4.14 µM (≈ 8 µg/mL); in assay [24], 4.14 µM (≈ 8 µg/mL); in assay [25] it was at least 33.1 µM. Moreover, the minimal inhibitory concentration (MIC) in [26] stood at 8.28 µM (≈ 16 µg/mL); in [27] it was 11.7 µM (≈ 22.6 µg/mL); in [28], 4.14 µM (≈ 8 µg/mL); in assay [29] it was 11.7 µM (≈ 22.6 µg/mL).
Consider `CC[C@H](C)[C@H](NC(=O)[C@H](CCCN=C(N)N)NC(=O)[C@H](CCCN=C(N)N)NC(=O)[C@H](CC(C)C)NC(=O)[C@H](Cc1ccccc1)NC(=O)[C@H](Cc1ccccc1)NC(=O)[C@@H](N)Cc1ccccc1)C(=O)N[C@@H](Cc1ccccc1)C(=O)O` [FFFLRRIF], for which the MIC in assay [30] was over 100 µM; in [31], at least 100 µM; in [4], at least 100 µM; in assay [32] it was over 100 µM; in assay [14], over 100 µM; in assay [33], at least 100 µM. Further, the minimal inhibitory concentration (MIC) in assay [34] is at least 100 µM; in assay [18], over 100 µM; in assay [35], at least 100 µM; in assay [36] it was 100 µM (≈ 115 µg/mL); in assay [37], at least 100 µM; in [26], at least 50 µM.
`CC[C@H](C)[C@H](NC(=O)[C@H](C)NC(=O)CNC(=O)[C@H](Cc1ccccc1)NC(=O)[C@@H](NC(=O)[C@@H](N)CC(=O)O)[C@@H](C)CC)C(=O)N[C@@H](Cc1c[nH]c2ccccc12)C(=O)N1CCC[C@H]1C(=O)N[C@@H](CC(C)C)C(=O)N[C@@H](C)C(=O)N[C@@H](CC(C)C)C(=O)NCC(=O)N[C@@H](C)C(=O)N[C@@H](CC(C)C)C(=O)N[C@@H](CCCCN)C(=O)N[C@@H](CC(N)=O)C(=O)N[C@@H](CC(C)C)C(=O)N[C@H](C(=O)N[C@@H](CCCCN)C(N)=O)[C@@H](C)CC` [DIFGAIWPLALGALKNLIK]: the minimal inhibitory concentration (MIC) in assay [38] is 4 µM (≈ 8.21 µg/mL); in assay [31] it was 16 µM (≈ 32.8 µg/mL); in [39] it was 16 µM (≈ 32.8 µg/mL); in assay [4] it was 16 µM (≈ 32.8 µg/mL); in assay [40], 16 µM (≈ 32.8 µg/mL); in [14], over 128 µM. Besides, the MIC in assay [18] is over 128 µM; in [36], 8 µM (≈ 16.4 µg/mL).
For `CC(C)C[C@H](NC(=O)CNC(=O)[C@H](C)NC(=O)[C@H](CCCCN)NC(=O)[C@H](CCCCN)NC(=O)[C@@H](N)CC(N)=O)C(=O)N[C@@H](Cc1ccccc1)C(=O)N[C@H](C(=O)N[C@H](C(=O)N[C@@H](CCC(N)=O)C(=O)N[C@@H](Cc1ccccc1)C(=O)N1CCC[C@H]1C(=O)N[C@@H](CCCCN)C(=O)N[C@@H](CCCCN)C(=O)N[C@@H](Cc1ccc(O)cc1)C(=O)O)C(C)C)C(C)C` [NKKAGLFVVQFPKKY], the MIC in assay [41] is 28.3 µM (≈ 50 µg/mL); in assay [42], at least 64 µM; in assay [43], at least 64 µM; in [44], at least 64 µM; in assay [45], at least 64 µM; in assay [46], at least 52 µM.

These data come from DBAASP.
